The OPERA property sets (Mansouri et al. 2018)

SMILES	boiling point [°C]	melting point [°C]	ready biodegradability	log10 Henry constant (atm·m³/mol)	log10 Koc (L/kg)	log10 biodegradation half-life (days)	log10 vapour pressure (mmHg)	log10 Koa
CCC(=O)C(C)=O	108	–	–	–	–	–	–	–
ClCC1C(CCl)C2(Cl)C(Cl)=C(Cl)C1(Cl)C2(Cl)Cl (stereo not drawn)	–	105	–	–	–	–	–	–
Cc1ccc(Cl)c(Nc2ccccc2C(=O)O)c1Cl	–	257	–	–	–	–	–	–
CCCCC(C)CCCC	165	-87.7	–	–	–	–	–	–
FC(F)(F)C(F)(F)C(F)(F)C(F)(F)C(F)(F)C(F)(F)C(F)(F)C(F)(F)Br	141	–	–	–	–	–	–	–
O=C(O)c1cccc2cccc(C(=O)O)c12	–	260	–	–	–	–	–	–
N#Cc1c(F)cccc1F	–	31	–	–	–	–	–	–
CCOCOCOCC	141	–	–	–	–	–	–	–
CCCC(C)C(C)C(C)C (stereo not drawn)	161	–	–	–	–	–	–	–
COc1ccc2c(c1)c(CC(=O)O)c(C)n2C(=O)c1ccc(Cl)cc1	–	158	–	–	–	–	–	–
O=C(O)C1CCNCC1	–	336	–	–	–	–	–	–
O=C(O)c1ccc(C(=O)O)o1	–	342	–	–	–	–	–	–
CCCCOC(=O)c1ccc([N+](=O)[O-])cc1	–	35.5	–	–	–	–	–	–
CCc1sccc1C	161	–	–	–	–	–	–	–
CCC(N)(CO)CO	–	37.5	not readily biodegradable	–	–	–	–	–
Clc1c2ccccc2nc2ccccc12	–	121	–	–	–	–	–	–
c1ccc(-c2nnc(-c3ccccc3)o2)cc1	–	139	–	–	–	–	–	–
Cc1ccc2ccccc2c1	241	34.4	–	-3.29	3.6	1.15	-1.26	–
O=C(O)c1ccoc1	–	122	–	–	–	–	–	–
C1CO1	10.6	-112	readily biodegradable	-3.83	–	–	3.12	–
Clc1ncccn1	–	67	–	–	–	–	–	–
O=C(Nc1ccccc1)Nc1cnns1	–	–	–	–	2.04	–	-10.6	–
CCCC=CC(=O)OCC	174	–	–	–	–	–	–	–
CCOC(=O)c1ccccc1Br	254	–	–	–	–	–	–	–
Clc1ccc(C(c2ccccc2Cl)C(Cl)(Cl)Cl)cc1 (stereo not drawn)	–	–	–	–	–	–	-5.87	9.45

SMILES	boiling point [°C]	melting point [°C]	ready biodegradability	log10 Henry constant (atm·m³/mol)	log10 Koc (L/kg)	log10 biodegradation half-life (days)	log10 vapour pressure (mmHg)	log10 Koa
Cc1ccc(N)c(Br)c1	240	26	–	–	–	–	–	–
CCCCC(=O)N(C)C	–	-51	–	–	–	–	–	–
CC12CCC(CC1=O)C2(C)C (stereo not drawn)	206	179	readily biodegradable	–	–	–	-0.665	–
CN1C(CSCC(F)(F)F)Nc2cc(Cl)c(S(N)(=O)=O)cc2S1(=O)=O (stereo not drawn)	–	214	–	–	–	–	–	–
CN1CCC2=C(C1)C(c1ccccc1)c1ccccc12 (stereo not drawn)	–	91	–	–	–	–	–	–
Cc1cc(NS(=O)(=O)c2ccc(N)cc2)n(-c2ccccc2)n1	–	195	–	–	–	–	–	–
O=C(O)c1ccccc1[N+](=O)[O-]	–	148	readily biodegradable	–	–	–	–	–
O=c1oc2ccccc2c(O)c1C1CC(c2ccc(-c3ccccc3)cc2)Cc2ccccc21 (stereo not drawn)	–	216	–	–	–	–	–	–
OCc1cccc(Cl)c1	237	–	–	–	–	–	–	–
C=C=CC	10.9	-136	–	–	–	–	3.1	–
Cl[C@H]1CC[C@@H](Cl)CC1	–	18	–	–	–	–	–	–
COc1ncnc(NS(=O)(=O)c2ccc(N)cc2)c1OC	–	192	–	–	–	–	–	–
c1cnc2c(c1)ccc1cccnc12	–	117	–	–	–	–	–	–
COc1ccnc2ccccc12	245	41	–	–	–	–	–	–
BrCC(Br)(Br)Br	–	0	–	–	–	–	–	–
NC(=O)Nc1ccc(Oc2ccccc2)cc1	–	–	–	–	2.56	–	–	–
O=[N+]([O-])c1ccc(Sc2ccc([N+](=O)[O-])cc2)cc1	–	160	–	–	–	–	–	–
ICI	182	6.1	–	-3.49	–	–	0.0792	–
Clc1ccc(Cc2ccc(Cl)cc2)cc1	–	55.5	–	–	–	–	–	–
O=Cc1ccoc1	145	–	–	–	–	–	–	–
Sc1cccc(Cl)c1	206	–	–	–	–	–	–	–
CCCCOC(=O)C(=O)OCCCC	241	-30.5	–	–	–	–	–	–
NNc1cccc2ccccc12	–	117	–	–	–	–	–	–
CCOC(=O)COc1ccc2c(=O)cc(-c3ccccc3)oc2c1	–	124	–	–	–	–	–	–
CCCCCCCCBr	200	-55	–	–	–	–	-0.418	–

SMILES	boiling point [°C]	melting point [°C]	ready biodegradability	log10 Henry constant (atm·m³/mol)	log10 Koc (L/kg)	log10 biodegradation half-life (days)	log10 vapour pressure (mmHg)	log10 Koa
Clc1cc(Cl)c(Cl)c(-c2ccc(Cl)c(Cl)c2Cl)c1	–	–	–	-4.43	–	–	–	–
Clc1ccc2c(c1)Oc1c(Cl)c(Cl)c(Cl)c(Cl)c1O2	–	195	–	–	–	–	-9.18	10.7
Cc1cncc(C)c1	172	-6.6	–	-5.16	–	–	0.239	–
CCCCC(C(N)=O)n1nnc2ccccc21 (stereo not drawn)	–	118	–	–	–	–	–	–
COc1ccccc1CC#N	–	69.8	–	–	–	–	–	–
FCBr	19	–	–	–	–	–	–	–
COc1cc(O)cc(OC)c1	–	37	–	–	–	–	–	–
Cc1ccccc1[N+](=O)[O-]	222	-10	not readily biodegradable	-4.9	–	–	-0.726	–
CCCCCCCCCCCCC(C)=O	–	33.5	–	–	–	–	–	–
CCC(S)CC	105	-111	–	–	–	–	–	–
CSc1nnc(C(C)(C)C)c(=O)n1N	–	126	–	–	1.71	–	-6.36	–
Cc1nc2cc(Cl)ccc2s1	–	69	–	–	–	–	–	–
Clc1ccccc1I	234	0.7	–	–	–	–	–	–
O[C@H]1CC[C@H](O)CC1	–	143	–	–	–	–	–	–
OCC1OC(O)C(O)C(O)C1O (stereo not drawn)	–	–	readily biodegradable	–	–	–	–	–
O=C(O)CBr	208	50	–	-8.19	–	–	-0.926	–
c1ccc2scnc2c1	231	2	not readily biodegradable	–	–	–	–	–
Clc1cccc(Cl)c1Oc1ccccc1	–	–	–	–	–	–	-2.89	–
CSc1ccc(O)cc1	–	–	not readily biodegradable	–	–	–	–	–
CCCC(C)C	60.2	–	readily biodegradable	–	–	–	2.32	–
COc1ccc(N)cc1Cl	–	52.5	–	–	1.93	–	–	–
CC(C)C(C)C(C)C	114	-109	–	–	–	1.18	1.43	–
CC1c2ccccc2-c2ccccc21	–	46.5	–	–	–	–	–	–
CCCC(=O)OCC	122	-98	–	–	–	–	1.11	3.56
